Experimental data published in patent publication US20240117302A1, “COMPOSITIONS AND METHODS FOR SMALL MOLECULE BASED EXPANSION OF PLURIPOTENT STEM CELLS” (Trailhead Biosystems Inc., priority 2022, published 2024).

Tests used:
Format in all cases: cell-based
[1] = system: pluripotent culture; assay: HD-DoE experiment for pluripotent maintenance (optimization of naïve, primed and pluripotent genes); conditions: FIG. 6A
Text: A data-driven, High-Dimensional Design of Experiments (HD-DoE)-based perturbation of a pluripotent culture was used to assay several cellular signaling pathways known to function within the pluripotent state. The HD-DOE method was applied with the intent to find conditions for directly inducing the naïve state from the pluripotent stem cell state. This example utilizes a method previously described by Bukys et al. (2020) Iscience 23:101346, which employs computerized design geometries to simultaneously test multiple process inputs and provide for mathematical modeling of a deep effector/response space. The method allows for finding combinatorial signaling inputs that control a complex differentiation process and allows testing of multiple plausible critical process parameters impacting output responses, such as gene expression. […]
To develop a cell culture recipe for growing and maintaining PSCs in cell culture and for differentiation of stem cells to naïve state progenitors, the impact of agonists and antagonists of multiple signaling pathways (herein called effectors) on the expression of pre-selected genes was tested and modeled. The impact of each effector on gene expression level is defined by a parameter called factor contribution that is calculated for each effector during the modeling. […]

[2] = system: pluripotent culture; assay: HD-DoE experiment for E8 critical process parameter (CPP) media determination; conditions: 1:1 F12/IMDM hybrid media, FIG. 3
Text: To monitor the differentiation state of a pluripotent culture and track the primed state, naïve state and any early lineage commitment biases that may arise during the culture process, a network consisting of 54 genes was chosen (FIG. 1). Other genes monitored throughout this series of experiments include TERT and KI67. Maximal TERT expression is needed to sustain the pluripotent state in both naïve and primed cells while KI67, a proliferation marker, is expected to increase in the naïve state. Housekeeping genes measured within this QS chip design are used to normalize the individual experimental runs. This network of genes was then monitored using an HD-DoE methodology (Bukys et al. (2020) Iscience 23:101346) as further described in Example 2 to enable in silico modelling of the pluripotent state.
An initial HD-DoE modelling experiment was designed to determine if any of the components within the Essential 8 (E8) media were critical for pluripotent maintenance. The results of this experiment are depicted in FIG. 2. E8 media components include HEPES, bicarbonate, selenium, ascorbic acid, transferrin, insulin, FGF2 and TGF-β. HEPES, bicarbonate and selenium were not considered in this HD-DoE design, because they are additives that are not specific for the maintenance of the pluripotent state but are involved in enabling the overall growth of any cells in culture. In addition, these components are present in most generic media formulations, whereas the initial HD-DoE experiment herein utilized a 1:1 F12/IMDM hybrid media already containing HEPES, bicarbonate and selenium. In addition to the E8 components, human leukemia inhibitory factor (hLIF), AICAR (AMPK pathway agonist), CHIR 99021 (Wnt agonist/[…] antagonist), Go6983 (PKC pathway antagonist), PD0325901 (MEK pathway antagonist), and Y27632 (ROCK inhibitor) were evaluated within this design (FIG. 2). These components were selected based on previous experiments indicating the potential contribution of these components to maintenance of the pluripotent state.
Whereas the overall pluripotent state was driven by Go6983, the naïve state was favored by Y27632.

[3] = system: pluripotent cells; assay: Adherent culture validation of TB5i media and comparison with TB7i; conditions: direct comparison between TB5i and TB7i, FIG. 7A-7B
Experimental: In an exemplary embodiment, a PSC culture, such as the CR01 iPSC line, is grown and maintained on vitronectin coated 6-well TC plates using a culture media of the present application, such as TB5i media. PSC cultures are generally passaged every 3-4 days and treated with agents for disrupting cell-to-cell adhesion, such as EDTA, or digestion enzymes, such as collagenase, accutase, trypsin, or […]. This can be accomplished by removing the media and washing each well of the TC plate with 2 ml of PBS. A 3-minute incubation in the presence of 5 mM EDTA can then be performed at 37 degrees C. Wells are then aspirated, and the cells are washed off from the plates and seeded in fresh media. Each well passaged is generally seeded onto 6 wells of a newly vitronectin-coated TC plate resulting in a 1 to 6 expansion of the iPSC line.

[4] = system: pluripotent colony; assay: Protein additives assayed in the TB5i formulation, with immuno-histochemical validation; conditions: additive in the TB5i formulation, FIG. 8A
Text: The protein additives FGF2, TGF-β1 and insulin were next assayed as additives in the TB5i formulation (FIG. 8A).

C[C@@H](N)[C@H]1CC[C@H](C(=O)Nc2ccncc2)CC1 [Y27632]
criticality to the process (sequential optimization of all naïve, primed and pluripotent genes) [1]: neither the cAMP activator forskolin, nor the ROCK pathway inhibitor were critical | contribution to maintaining the pluripotent state [2]: potentially aid in pluripotent maintenance | benefit to the overall growth of pluripotent cells [3]: neither forskolin, nor Y27632 were beneficial

transferrin
contribution to maintaining the pluripotent state [2]: beneficial in maintaining the pluripotent state

TGF-β1
morphology of the pluripotent colony edges [4]: sustained normal morphology

COc1ccc2c(c1)c(C1=C(c3c[nH]c4ccccc34)C(=O)NC1=O)cn2CCCN(C)C [Go6983]
contribution to maintaining the pluripotent state [2]: potentially aid in pluripotent maintenance

insulin
effect on the culture [4]: little, if any beneficial effect

FGF2
growth rate of the culture [4]: increased the growth rate

O=C1O[C@H]([C@@H](O)CO)C(O)=C1O [ascorbic acid]
contribution to maintaining the pluripotent state [2]: beneficial in maintaining the pluripotent state
